# Values of other authors as cited in patent publication US8497290B2, “Thiocolchicine derivatives, method of making and methods of use thereof” (priority 2009, dated 2013).
# Tested on: rat model
# Details: metabolites of thiocolchicoside, compared with thiocolchicoside
smiles,measurement,value
"COc1c(O[C@@H]2O[C@H](C(=O)O)[C@@H](O)[C@H](O)[C@H]2O)cc2c(c1OC)-c1ccc(SC)c(=O)cc1[C@@H](NC(C)=O)CC2 [3-O-glucuronidated aglycone derivative, (7S)-7-(acetylamino)-5,6,7,9-tetrahydro-1,2-dimethoxy-10-(methylthio)-9-oxobenzo[a]heptalen-3-yl β-D-glucopyranosiduronic acid]",muscle relaxant activity,muscle relaxant activity similar to that of thiocolchicoside
